Assay results taken from PMC2533696 (PLoS Pathogens, 2008).
Where a SMILES comes first, the peptide text is derived from it. Where no end group is shown, it is not given here.

Experiments:
[1] = target: Clostridium botulinum neurotoxin serotype A truncated light chain (residues 1 to 424), Balc424 (Clostridium botulinum, UniProt P0DPI0); experiment: biochemical; settings: 37°C, 30 min
BoNT/A = settings: read-out: Kι; cited from earlier work

Clostridium botulinum neurotoxin serotype A truncated light chain (residues 1 to 424), Balc424, sequence (P0DPI0 1-424 limits assumed): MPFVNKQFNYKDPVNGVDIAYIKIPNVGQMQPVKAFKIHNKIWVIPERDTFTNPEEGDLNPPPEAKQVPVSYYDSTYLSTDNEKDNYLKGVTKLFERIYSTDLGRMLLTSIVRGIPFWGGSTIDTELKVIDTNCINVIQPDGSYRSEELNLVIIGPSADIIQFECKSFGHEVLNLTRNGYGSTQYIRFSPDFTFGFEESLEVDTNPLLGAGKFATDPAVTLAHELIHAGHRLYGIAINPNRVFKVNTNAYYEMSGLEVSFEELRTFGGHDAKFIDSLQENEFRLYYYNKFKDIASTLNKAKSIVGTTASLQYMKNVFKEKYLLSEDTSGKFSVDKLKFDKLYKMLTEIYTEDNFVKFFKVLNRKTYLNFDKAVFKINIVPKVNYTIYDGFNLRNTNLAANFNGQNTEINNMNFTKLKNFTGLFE

Row | Compound | IC50 [1] [µM] | Ki (BoNT/A) [µM]
1 | CSCC[C@H](NC(=O)[C@H](CCCCN)NC(=O)[C@@H](NC(=O)[C@H](C)NC(=O)[C@H](CCCNC(=N)N)NC(=O)[C@@H](N)CCC(N)=O)[C@@H](C)O)C(N)=O [QRATKM] (H-QRATKM-NH2) | 133 | –
2 | Ac-CRATKML | – | 1.9
